From patent US10179132B2, “Composition for inducing differentiation of multipotent neural stem cells into dopaminergic neurons and method for inducing differentiation of multipotent neural stem cells into dopaminergic neurons by using the same” (INDUSTRY-ACADEMIC COOPERATION FOUNDATION, YONSEI UNIVERSITY, priority 2015, dated 2019)
Where a name gives a salt, the structure may show the parent alone.

Assays:
mouse neural stem cells [1] = assay: Cell cycle analysis by PI staining and flow cytometry; type: cell-based; settings: 10 μM, 4 days; PI staining; FIG. 2C
Method: Specifically, the cell cycles were analyzed by the following procedure. First, the cells (Example 1, Example 2, and Comparative Example 1) were washed twice with cold PBS and fixed in cold 70% ethanol for 30 min. The ethanol was removed by centrifugation, the cells were suspended, and the number of the cells was adjusted to 10^6/ml. The cells were washed twice with PBS, treated with 50 μg/ml propidium iodide (PI) at room temperature in the presence of RNase, and cultured for 30 min. Finally, the number of the cells was counted using a FACS Calibur flow cytometer (BD Biosciences, USA). Apoptosis was analyzed as follows. The cells were washed twice with cold PBS, treated with propidium iodide (PI) and Annexin V FITC at room temperature, and cultured for 15 min. PI and FITC fluorescence intensities were measured using a FACS flow cytometer. Data were analyzed with the Cell-quest FACS analysis software (BD Biosciences). The results are shown in FIGS. 2A, 2B, 2C, 3A, 3B and 3C. FIGS. 2A, 2B, 2C, 3A, 3B and 3C show the results of flow cytometry for the neural progenitor cells (undifferentiated; UD) cultured in Example 1, the differentiated cells (D) cultured in Comparative Example 1, and the AS703026-treated cells (UD+AS) cultured in Example 2 to identify the cycles of the cells. […]

[2] = tested on: ventral midbrains of embryos of pregnant mouse models; assay: Intraperitoneal administration to pregnant mice; marker expression in embryonic ventral midbrains (immunocytochemistry, RT-PCR); type: in vivo
Method: After the same amount of distilled water (D.W) as control was administered intraperitoneally to pregnant mouse models at 10.5 days of gestation daily for 4 consecutive days, the expression levels of the markers in the ventral midbrains, where dopaminergic neurons were most abundantly distributed, were analyzed. The control is marked as “Vehicle” in FIGS. 6 and 7.
Proteins and mRNAs isolated from the brains of the sacrificed embryos were analyzed by RT-PCR.

mouse neural stem cells [3] = assay: Real-time RT-PCR of neuronal / dopaminergic markers in cultured neural stem cells; type: cell-based; settings: 4 days; for Tuj1 (marker of neurons) expression / tyrosine hydroxylase (TH) expression: AS703026, AZD8330 10 μM, PD318088, Trametinib, Refametinib 1 μM; for Tuj1 (marker of neurons) expression: FIG. 8B; for tyrosine hydroxylase (TH) expression: FIG. 8C
Method: Neural stem cells were isolated from the brain of a day 14.5 mouse embryo, treated with 10 ng/ml human basic fibroblast growth factor (bFGF) (Peprotech, Princeton, N.J.) and 20 ng/ml human epidermal growth factor (EGF) (Peprotech) in a N2 culture medium, and cultured in suspension in a 25 cm^2 flask (Nunc, Pittsburgh, Pa.) for 4 days.
Neurospheres were treated with TrypLE and then separated into single cells, which were uniformly seeded into a culture dish coated with 15 μg/ml poly-L-ornithine and 10 μg/ml fibronectin. Following culture, the morphology of the cells was observed.
The N2 culture medium was Dulbecco's modified Eagle's medium (DMEM)/F12 (1:1) supplemented with 100 μM putrescine, 30 nM selenite, 20 nM progesterone, 1.55 mg/ml d-(+)-glucose, 25 μg/ml insulin, […] apo-transferrin, 0.5 mM alanyl glutamine, 100 IU/ml penicillin, and 100 μg/ml streptomycin.
(§1) Mouse neural stem cells were cultured in accordance with the procedure of Example 1. […] The cells were cultured for 4 days.
(§2) Neurospheres were treated with TrypLE and separated into single cells, which were uniformly seeded into a culture dish coated with 15 μg/ml poly-L-ornithine and 10 μg/ml fibronectin. Following culture, the morphology of the cells was observed.
To this end, real-time (RT) PCR analysis was performed on neuron-specific markers. On day 4 after in vitro differentiation, mRNA expression was identified. The numbers in the graph indicate average values of mRNA expression levels relative to the respective controls from real-time PCR analyses in triplicate.
(§3) In this example, it was confirmed whether dopaminergic neurons were differentiated from neural stem cells.

mouse neural stem cells [4] = assay: Apoptosis analysis by annexin-V/PI flow cytometry; type: cell-based; settings: 10 μM, 4 days
Method: Finally, the number of the cells was counted using a FACS Calibur flow cytometer (BD Biosciences, USA). Apoptosis was analyzed as follows. The cells were washed twice with cold PBS, treated with propidium iodide (PI) and Annexin V FITC at room temperature, and cultured for 15 min. PI and FITC fluorescence intensities were measured using a FACS flow cytometer. Data were analyzed with the Cell-quest FACS analysis software (BD Biosciences). The results are shown in FIGS. 2A, 2B, 2C, 3A, 3B and 3C. FIGS. 2A, 2B, 2C, 3A, 3B and 3C show the results of flow cytometry for the neural progenitor cells (undifferentiated; UD) cultured in Example 1, the differentiated cells (D) cultured in Comparative Example 1, and the AS703026-treated cells (UD+AS) cultured in Example 2 to identify the cycles of the cells. Specifically, FIGS. 2A, 2B and 2C are histograms showing the results of flow cytometry for the cells stained with PI. FIGS. 3A, 3B and 3C are scatter plot diagrams showing the results of flow cytometry for the cells stains with annexin-V/PI.

mouse neural stem cells [5] = assay: Immunocytochemical analysis of marker expression in cultured neural stem cells; type: cell-based; settings: 10 μM, 4 days
Method: Mouse neural stem cells were cultured in accordance with the procedure of Example 1. […] The cells were cultured for 4 days. Neurospheres were treated with TrypLE and separated into single cells, which were uniformly seeded into a culture dish coated with 15 μg/ml poly-L-ornithine and 10 μg/ml fibronectin. Following culture, the morphology of the cells was observed. […] In this example, it was confirmed whether dopaminergic neurons were differentiated from neural stem cells. To this end, immunoblot analysis and immunocytochemical analysis were performed on the neural progenitor cells (undifferentiated; UD) cultured in Example 1, the differentiated cells (D) cultured in Comparative Example 1, and the AS703026-treated cells (UD+AS) cultured in Example 2, and the results were compared. The immunocytochemical analysis was performed by the following procedure. First, the cells were fixed in 4% para-formaldehyde at room temperature for 10 min, washed with PBS, and incubated with 0.2% Triton X-100 at room temperature for 15 min. After blocking with 10% BSA at room temperature for 1 h, the cells were incubated with anti-Tuj1 (Covance, Princeton, N.J.), anti-GFAP (Biogenex, San Ramon, Calif.), anti-MBP (Abcam), anti-Ki67 (Abcam), anti-p-ERK1/2 or anti-TH antibodies at 4° C. overnight, and cultured using Alexa Fluor 488- or Alexa Fluor 555-conjugated IgG secondary antibodies (Molecular Probes, Eugene, Oreg.) at room temperature for 1 h. Subsequently, the cells were cultured with 1 μg/ml 4′,6-diamidino-2-phenylindole (DAPI) for 5 min, the inlet was sealed with a coverslip, and the cells were observed using a confocal microscope. FIGS. 4 and 5 show the results of immunoblot analysis (FIG. 4) and immunocytochemical analysis (FIG. 5) for the neural progenitor cells (undifferentiated; UD) cultured in Example 1, the differentiated cells (D) cultured in Comparative Example 1, and the AS703026-treated cells (UD+AS) cultured in Example 2 to determine whether dopaminergic neurons were differentiated from the neural stem cells.

mouse neural stem cells [6] = assay: Morphological analysis of treated neural stem cells; type: cell-based; settings: AS703026, AZD8330 10 μM; PD318088, Trametinib, Refametinib 1 μM; 4 days; FIG. 8A
Method: as §1, §2, §3

mouse neural stem cells [7] = assay: Immunoblot analysis of marker expression in cultured neural stem cells; type: cell-based
Method: Mouse neural stem cells were cultured in accordance with the procedure of Example 1. […] The cells were cultured for 4 days. Neurospheres were treated with TrypLE and separated into single cells, which were uniformly seeded into a culture dish coated with 15 μg/ml poly-L-ornithine and 10 μg/ml fibronectin. Following culture, the morphology of the cells was observed. In this example, it was confirmed whether dopaminergic neurons were differentiated from neural stem cells. To this end, immunoblot analysis and immunocytochemical analysis were performed on the neural progenitor cells (undifferentiated; UD) cultured in Example 1, the differentiated cells (D) cultured in Comparative Example 1, and the AS703026-treated cells (UD+AS) cultured in Example 2, and the results were compared. The immunoblot analysis was performed by the following procedure. First, the cells were washed with ice-cold phosphate-buffered saline (PBS) and lysed with 1×RIPA buffer (10 mM HEPES, 1.5 mM MgCl2, 10 mM KCl, 0.01 M DTT, protease inhibitors, pH 7.9). The cell homogenate was heated at 100° C. for 10 min and subjected to 10-12% SDS-polyacrylamide gel electrophoresis. Proteins were electrophoretically transferred to a nitrocellulose membrane and blocked with 5% non-fat dry milk in TBS-Tween 20 (0.1%, v/v) for 1 h. Western blotting was performed using anti-Tuj1, anti-GFAP or anti-MBP antibodies and successively horseradish peroxidase-conjugated anti-rabbit or anti-mouse IgG secondary antibodies. The protein bands were visualized using enhanced chemiluminescence (ECL, lab made) and detected with LAS-3000 (FUJIFILM, Tokyo, Japan). FIGS. 4 and 5 show the results of immunoblot analysis (FIG. 4) and immunocytochemical analysis (FIG. 5) for the neural progenitor cells (undifferentiated; UD) cultured in Example 1, the differentiated cells (D) cultured in Comparative Example 1, and the AS703026-treated cells (UD+AS) cultured in Example 2 to determine whether dopaminergic neurons were differentiated from the neural stem cells. […] The AS703026-treated cells were cultured in the same manner as in Example 2. […]

neural stem cells = assay: Differentiation of neural stem cells into dopaminergic neurons (general statements, no separate method); type: cell-based, mouse; settings: MEK 1 inhibitor, no MEK 2 inhibition
[8] = i.p. to pregnant mice from 10.5 days of gestation, daily for 4 days, vs distilled water

## O=C(NC[C@H](O)CO)c1ccncc1Nc1ccc(I)cc1F [AS703026, N-[(2S)-2,3-dihydroxypropyl]-3-[(2-fluoro-4-iodophenyl)amino]isonicotinamide hydrochloride]
Mouse neural stem cells [1]
  cell cycle: arrested in the G0/G1 phase
[2]; i.p. to pregnant mice at 10.5 days of gestation
  number of dopaminergic neurons formed in embryo brains vs non-administered animals: approximately twice as large
[2]; [8]
  expression level of TH in embryo brains vs control: significantly higher
  expression level of Tuj1 in embryo brains vs control: significantly higher
[2]; i.p. to pregnant mice, 4 days
  immune response to GFAP in embryo brains: No immune responses
  immune response to MBP in embryo brains: No immune responses
[2]; i.p. to pregnant mice, 4 days, FIG. 7
  differentiation into dopaminergic neurons in embryos (RT-PCR): increased differentiation
Mouse neural stem cells [3]; 10 μM, compared with Tuj1
  expression level of GFAP (astrocyte differentiation factor): lower than that of Tuj1
  expression level of MBP (oligodendrocyte differentiation factor): lower than that of Tuj1
Mouse neural stem cells [3]; 10 μM, vs undifferentiated (UD) and differentiated (D) cells, FIG. 1A
  expression level of Tuj1 (neuronal differentiation factor), times higher than UD and D cells: at least 10 times
Mouse neural stem cells [3]
  Tuj1 (marker of neurons) expression: expressed only
  tyrosine hydroxylase (TH) expression: expressed only
Mouse neural stem cells [4]
  apoptosis: does not induce apoptosis
Mouse neural stem cells [5]
  immune response to GFAP: No immune responses
  immune response to MBP: No immune responses
Mouse neural stem cells [5]; FIG. 1B
  number of clusters of dopaminergic neurons from which neurites extended outward: increase
  number of dopaminergic neurons differentiated (Tuj1 immunocytochemistry): considerable increase
Mouse neural stem cells [5]; vs UD and D cells, FIG. 5
  tyrosine hydroxylase (TH) expression, immunocytochemistry: expressed only
Mouse neural stem cells [6]
  morphology of treated cells: neuron-like morphological changes
Mouse neural stem cells [7]; 1 μM (UD+AS, 1)
  expression pattern of TH compared with cells of Example 2 (10 μM): similar
Mouse neural stem cells [7]; 5 μM (UD+AS, 5)
  expression pattern of TH compared with cells of Example 2 (10 μM): similar
Mouse neural stem cells [7]; 10 μM, 4 days, vs UD and D cells, FIG. 4
  tyrosine hydroxylase (TH) expression, immunoblot: expressed only

## Cc1cc(C(=O)NOCCO)c(Nc2ccc(I)cc2F)n(C)c1=O [AZD8330]
Mouse neural stem cells [3]
  Tuj1 (marker of neurons) expression: expressed only
  tyrosine hydroxylase (TH) expression: expressed only
Mouse neural stem cells [6]
  morphology of treated cells: neuron-like morphological changes

## COc1cccc(-c2cc(=O)c3ccccc3o2)c1N [PD98059]
Neural stem cells
  induction of differentiation of neural stem cells into dopaminergic neurons: does not induce substantial differentiation

## O=C(NOCC(O)CO)c1cc(Br)c(F)c(F)c1Nc1ccc(I)cc1F (centres unmarked) [PD318088]
Mouse neural stem cells [3]
  Tuj1 (marker of neurons) expression: expressed only
  tyrosine hydroxylase (TH) expression: expressed only
Mouse neural stem cells [6]
  morphology of treated cells: neuron-like morphological changes

## COc1cc(F)c(F)c(Nc2ccc(I)cc2F)c1NS(=O)(=O)C1(C[C@H](O)CO)CC1 [Refametinib]
Mouse neural stem cells [3]
  Tuj1 (marker of neurons) expression: expressed only
  tyrosine hydroxylase (TH) expression: expressed only
Mouse neural stem cells [6]
  morphology of treated cells: neuron-like morphological changes
